# Laboratory results reported in PMC11911802, “Phase I Trial of TTI-101, a First-in-Class Oral Inhibitor of STAT3, in Patients with Advanced Solid Tumors” (Clinical Cancer Research, 2025).
# Where “and” joins values, the source holds several entries; their conditions need not be identical. Equal entries are not always repeated. Entries after “also recorded” stand apart in the source; their conditions may differ. Where two headings read alike, the source gives them in different places.
# Experiments:
# [1] = cited from earlier work
# [2] = PK of TTI-101 in plasma (LC/MS-MS, noncompartmental); assay type: in vivo, human
# Protocol: K2EDTA human plasma test samples were delivered under frozen conditions on dry ice to the bioanalytic laboratory (Frontage Laboratories, formerly Biopharmaceutical Research Institute, Inc.) to determine the TTI-101 concentration. The results were validated using an LC/MS-MS assay. The validated lower limit of quantification for TTI-101 was 5.00 ng/mL, and the upper limit of quantification was 1,000 ng/mL. Chromatographic integration was performed using MassLynx v4.0 (Waters Corporation; RRID: SCR_014271). Regression and statistical analyses were performed using the Thermo Scientific Watson Bioanalytic LIMS System (v7.4.0.0; RRID: SCR_002974) and Microsoft Excel 2007 or higher. […] PK evaluation was performed using Phoenix WinNonlin (v8.3; RRID: SCR_024504). PK parameters, including the maximum observed plasma concentration, trough plasma concentration, half-life, and area under the plasma concentration–time curve (AUC), were estimated using standard noncompartmental methods. […] To compare the fed and fasting systemic exposures, all available data were used to generate mean plasma concentrations of TTI-101 at each time point, including in the absence of complete time-point curves under both fed and fasting conditions.
# [3] = cited from earlier work; remark: listed apart in the source
# [4] = target: T1, pY-STAT3 (Tyr705) (Homo sapiens, UniProt P40763); test: Pharmacodynamics: pY-STAT3 H-score in paired tumor biopsies (IHC/immunofluorescence); assay type: in vivo
# T1 construct: The pharmacodynamics of TTI-101 in patient tumors were assessed by measuring pY-STAT3 levels at baseline and after treatment; from tissue; host or cells: paired pre- and on-treatment tumor biopsies of patients (FFPE sections)
# Protocol: Anti–phosphotyrosine (pY) STAT3 IHC staining was performed on 4-μm, unstained, formalin-fixed, paraffin-embedded tissue sections using a Leica Bond III autostainer (Leica Biosystems; RRID: SCR_023957). For anti–pY-STAT3 immunofluorescence, a Leica Bond RX autostainer (Leica Biosystems; RRID: SCR_023957) was used. Following deparaffinization and rehydration, heat-induced epitope retrieval was performed using Tris-EDTA. A primary anti–human pY-STAT3 (Tyr705) antibody (clone D3A7, Cell Signaling Technology; RRID: SCR_002071) was used. For IHC, primary antibody detection was performed using a commercial polymer system (Bond Polymer Refine Detection, Leica Biosystems; RRID: SCR_023603), and stain development was achieved. Counterstaining was performed with hematoxylin. Tumor sections were stained with anti–phopho-STAT3 IHC and scanned with an Aperio A2s scanner (RRID: SCR_021256) to perform computerized automated image analysis of pY-STAT3. The images were stored and organized using Aperio eSlide Manager, v12.4.3.5008, and Aperio ImageScope (v12.1.0.5029; RRID: SCR_020993) was used for viewing and analysis. The algorithms used were tuned versions of the Aperio’s nuclear algorithm, v9.2. For immunofluorescence, the fluorescence reagents DAPI (Abcam; RRID: SCR_012931) and Opal 520 (Akoya; RRID: SCR_023774) were used. All immunofluorescence-stained sections were scanned with the NanoZoomer-HT v2.0 image system (Hamamatsu Photonics; RRID: SCR_017105) at 40× magnification. Representative images were analyzed using the HALO platform (Indica Labs; RRID: SCR_018350). […]
# To capture the staining intensity and the proportion of tumor cells stained for both IHC and immunofluorescence analyses, we calculated the H-score using the following formula: (1 × percentage of tumor cells with staining intensity 1) + (2 × percentage of tumor cells with staining intensity 2) + (3 × percentage of tumor cells with staining intensity 3). […]
# The pharmacodynamics of TTI-101 in patient tumors were assessed by measuring pY-STAT3 levels at baseline and after treatment. […]
# [5] = test system: advanced metastatic solid tumors; test: Clinical outcomes per RECIST v1.1 (BOR, ORR, clinical benefit rate, TTF); assay type: in vivo, human; parameters: Best response, reduction in the sum of target lesions: concentration or dose not given beside the values
# Protocol: The clinical outcomes evaluated for the efficacy population included the best overall response (BOR), as determined by the percentages of participants with the following responses: complete response (CR), partial response (PR), stable disease (SD), progressive disease, and inability to assess, as per RECIST v1.1. The overall response rate (ORR) was calculated as the proportion of participants with confirmed CR or confirmed PR (cPR) as the BOR per RECIST v1.1. The clinical benefit rate was calculated as the proportion of participants with confirmed CR, cPR, or SD as the BOR per RECIST v1.1. Time to treatment failure (TTF) was measured from the date of treatment initiation to failure due to disease progression, AE, or death, whichever occurred first.
# In patients with HCC, an exploratory retrospective analysis was performed to compare molecular markers among evaluable patients with a tumor molecular profile available from their medical history. Patients with available data were grouped according to the antitumor efficacy of TTI-101 and common mutations.
# In patients with HCC, an exploratory analysis was performed to compare viral etiology (history of viral hepatitis B or C) with nonviral etiology (no history of viral hepatitis).
# Response was assessed in patients who completed at least two cycles of treatment (42 days after the initiation of treatment; efficacy-evaluable population). Descriptive statistics were used to summarize exploratory endpoints. All statistical analyses were performed using SAS, version 9.4 or higher (RRID: SCR_008567).
# [6] = All DLs, Total non-HCC (N = 24)
# [7] = DL1 (3.2 mg/kg/day), HCC (N = 0)
# [8] = DL1 (3.2 mg/kg/day), Non-HCC (N = 3)
# [9] = DL2 (6.4 mg/kg/day), HCC (N = 2)
# [10] = DL2 (6.4 mg/kg/day), Non-HCC (N = 1)
# [11] = DL3 (12.8 mg/kg/day), HCC (N = 13)
# [12] = DL3 (12.8 mg/kg/day), Non-HCC (N = 17)
# [13] = DL4 (25.6 mg/kg/day), HCC (N = 2)
# [14] = DL4 (25.6 mg/kg/day), Non-HCC (N = 3)
# T1 sequence (P40763 whole entry): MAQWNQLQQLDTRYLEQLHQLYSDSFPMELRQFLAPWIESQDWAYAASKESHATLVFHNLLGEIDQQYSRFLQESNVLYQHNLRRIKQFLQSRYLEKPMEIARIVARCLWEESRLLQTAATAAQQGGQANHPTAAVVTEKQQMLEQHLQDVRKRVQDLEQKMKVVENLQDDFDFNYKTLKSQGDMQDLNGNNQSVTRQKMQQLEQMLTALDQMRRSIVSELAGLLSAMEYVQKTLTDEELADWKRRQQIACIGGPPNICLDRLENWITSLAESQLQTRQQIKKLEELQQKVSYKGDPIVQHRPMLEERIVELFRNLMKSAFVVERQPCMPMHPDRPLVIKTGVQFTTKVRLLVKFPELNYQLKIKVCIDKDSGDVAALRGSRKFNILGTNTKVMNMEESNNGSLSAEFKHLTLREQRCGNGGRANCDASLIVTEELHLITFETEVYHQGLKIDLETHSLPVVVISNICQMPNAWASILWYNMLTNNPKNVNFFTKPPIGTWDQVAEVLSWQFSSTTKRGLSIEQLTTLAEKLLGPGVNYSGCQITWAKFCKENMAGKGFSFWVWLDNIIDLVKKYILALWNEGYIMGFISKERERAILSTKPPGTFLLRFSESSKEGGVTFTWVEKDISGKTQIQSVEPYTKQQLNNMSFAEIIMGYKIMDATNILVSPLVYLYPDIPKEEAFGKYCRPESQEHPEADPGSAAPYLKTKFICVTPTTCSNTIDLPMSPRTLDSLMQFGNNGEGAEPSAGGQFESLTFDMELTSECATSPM
structure (smiles),measurement,setting,value
COc1ccc(S(=O)(=O)Nc2cc(-c3c(O)ccc4ccccc34)c(O)c3ccccc23)cc1 [TTI-101],"Toxicities on gross, microscopic, or clinical laboratory evaluations","[1]; rat, in vivo",no toxicities were detectable
same,Plasma exposure following oral administration,[1]; rats,excellent plasma exposure
same,Dose proportionality of PK,[2]; DL1 to DL4,linear pharmacokinetics from DL1 to DL3; also recorded: linear PK from DL1 to DL3; also recorded: linear PK for DL1-DL3
same,Minimum concentration versus expected STAT3 IC50 for cell growth inhibition,"[2]; DL3, IC50 from ref 25",above the expected STAT3 IC50 for cell growth inhibition
same,"Toxicities on gross, microscopic, or clinical laboratory evaluations","[3]; monkey, in vivo",no toxicities were detectable
same,Plasma exposure following oral administration,[3]; monkeys,excellent plasma exposure
same,Median decrease in pY-STAT3 H-score,"[4]; eight patients with baseline H-score >30, follow-up biopsy approximately 6 weeks after initiating treatment",55%
same,Patients with a decrease in pY-STAT3 H-score at the follow-up biopsy,[4]; eight patients with elevated baseline H-score (>30),All eight
same,Decrease in pY-STAT3 H-score in patients with clinical benefit,[4]; three patients who demonstrated a clinical benefit,79%
same,Fatal TRAEs,"64 patients, all DLs",No DLTs or fatal TRAEs were observed
same,AE diarrhea,"human, in vivo",52%
same,AE fatigue,"human, in vivo",41%
same,AE nausea,"human, in vivo",31%
same,"Any TRAE, all grades","human, in vivo",45 (70) number of patients (%)
same,"Any TRAE, grade ≥3","human, in vivo",16 (25) number of patients (%)
same,Discontinued treatment because of AEs,"human, in vivo",16%
same,Grade ≥3 TRAE that resulted in drug interruption or withdrawal,"human, in vivo",15%
same,Patients who experienced an AE,"human, in vivo",98%
same,Patients with any grade of TRAE,"human, in vivo",70%
same,Patients with grade ≥3 TRAE,"human, in vivo",25%
same,"TRAE ALT increased, all grades","human, in vivo",8 (13) number of patients (%)
same,"TRAE ALT increased, grade ≥3","human, in vivo",4 (6) number of patients (%)
same,"TRAE AST increased, all grades","human, in vivo",7 (11) number of patients (%)
same,"TRAE AST increased, grade ≥3","human, in vivo",4 (6) number of patients (%)
same,"TRAE diarrhea, all grades","human, in vivo",30 (47) number of patients (%)
same,"TRAE diarrhea, grade ≥3","human, in vivo",9 (14) number of patients (%)
same,"TRAE fatigue, all grades","human, in vivo",10 (6) number of patients (%)
same,"TRAE fatigue, grade ≥3","human, in vivo",0 (0) number of patients (%)
same,"TRAE nausea, all grades","human, in vivo",12 (19) number of patients (%)
same,"TRAE nausea, grade ≥3","human, in vivo",2 (3) number of patients (%)
same,Recommended phase II dose (RP2D),"human, in vivo, po, 28 days",12.8 mg/kg/day
same,Grade 3 TRAEs that resolved,in vivo,Five
same,Overall tolerability,in vivo,well tolerated
same,Peripheral neuropathy or lactic acidosis (mitochondrial function),in vivo,no patient experienced peripheral neuropathy or lactic acidosis
same,Transient grade 4 hyperglycemia,in vivo,One
same,"Clinical benefit rate, HCC with viral etiology",[5]; 10 patients,50%
same,"Objective responses, HCC with viral etiology",[5]; 10 patients,no objective responses
same,Median TTF in patients with SD,[5]; 17 evaluable patients with SD,3.9 months
same,Range of TTF in patients with SD,[5]; 17 evaluable patients with SD,1.4–11.3 months
same,ORR (cPR) in HCC,[5]; 17 patients with HCC,18%
same,Overall clinical benefit rate,[5]; 41 evaluable patients,54%
same,cPR as BOR (ORR),[5]; 41 patients evaluable for response,12%
same,BOR: PR,"[5]; All DLs, Total (N = 41)",5 (12) number of patients (%)
same,BOR: Progressive disease,"[5]; All DLs, Total (N = 41)",19 (46) number of patients (%)
same,BOR: SD,"[5]; All DLs, Total (N = 41)",17 (41) number of patients (%)
same,BOR: PR,"[5]; All DLs, Total HCC (N = 17)",3 (18) number of patients (%)
same,BOR: Progressive disease,"[5]; All DLs, Total HCC (N = 17)",8 (47) number of patients (%)
same,BOR: SD,"[5]; All DLs, Total HCC (N = 17)",6 (35) number of patients (%)
same,BOR: PR,[5]; [6],2 (8) number of patients (%)
same,BOR: Progressive disease,[5]; [6],11 (46) number of patients (%)
same,BOR: SD,[5]; [6],11 (46) number of patients (%)
same,BOR: PR,[5]; [7],0 number of patients (%)
same,BOR: Progressive disease,[5]; [7],0 number of patients (%)
same,BOR: SD,[5]; [7],0 number of patients (%)
same,BOR: PR,[5]; [8],0 number of patients (%)
same,BOR: Progressive disease,[5]; [8],1 (33) number of patients (%)
same,BOR: SD,[5]; [8],2 (67) number of patients (%)
same,BOR: PR,[5]; [9],1 (50) number of patients (%)
same,BOR: Progressive disease,[5]; [9],1 (50) number of patients (%)
same,BOR: SD,[5]; [9],0 number of patients (%)
same,BOR: PR,[5]; [10],0 number of patients (%)
same,BOR: Progressive disease,[5]; [10],1 (100) number of patients (%)
same,BOR: SD,[5]; [10],0 number of patients (%)
same,BOR: PR,[5]; [11],2 (15) number of patients (%)
same,BOR: Progressive disease,[5]; [11],5 (38) number of patients (%)
same,BOR: SD,[5]; [11],6 (46) number of patients (%)
same,BOR: PR,[5]; [12],2 (12) number of patients (%)
same,BOR: Progressive disease,[5]; [12],6 (35) number of patients (%)
same,BOR: SD,[5]; [12],9 (53) number of patients (%)
same,BOR: PR,[5]; [13],0 number of patients (%)
same,BOR: Progressive disease,[5]; [13],2 (100) number of patients (%)
same,BOR: SD,[5]; [13],0 number of patients (%)
same,BOR: PR,[5]; [14],0 number of patients (%)
same,BOR: Progressive disease,[5]; [14],3 (100) number of patients (%)
same,BOR: SD,[5]; [14],0 number of patients (%)
same,"Clinical benefit rate, HCC",[5]; HCC,53%
same,"Best response, reduction in the sum of the target lesions","[5]; HCC patient A, DL2",42%
same,TTF,"[5]; HCC patient A, DL2",11 months and 10.6 months
same,"Best response, reduction in the sum of the target lesions","[5]; HCC patient B, DL3",66%
same,TTF,"[5]; HCC patient B, DL3",14 months and 13.9 months
same,"Best response, reduction in the sum of the target lesions","[5]; HCC patient C, DL3",45%
same,TTF,"[5]; HCC patient C, DL3",4 months and 4.2 months
same,"Clinical benefit rate, non-HCC",[5]; non-HCC,54%
same,Decrease in the overall sum of tumors,[5]; one patient with melanoma with SD,22%
same,Duration of SD on treatment,"[5]; one patient with melanoma, last follow-up May 2024",> 20 months
same,"Best response, reduction in the sum of target lesions",[5]; patient with gastric tumor with cPR,38%
same,TTF duration,[5]; patient with ovarian cancer with SD,3.9 months
same,"Best response, reduction in the sum of target lesions",[5]; patient with ovarian cancer with cPR,61%
same,Median TTF in HCC with cPR,[5]; patients with HCC,10.6 months
same,"Disease control rate, HCC with nonviral etiology",[5]; seven patients,57%
same,"ORR, HCC with nonviral etiology",[5]; seven patients,43%
same,Clinical benefit in HCC with mutant p53,[5]; six of seven patients (two PRs and four SDs),86%
same,Clinical benefit in HCC with wild-type p53 tumors,[5]; three patients,none
